Key:
MDA-MB-231 cells = assay: Cell validation: cytotoxicity in MDA-MB-231 cells (CellTiter-Glo); format: cell-based; conditions: for IC50: Homo sapiens; for IC50 / Cell validation (IC50): cytotoxicity in MDA-MB-231 cells
Experimental: (§1) The in vitro validation was performed by measuring KIF2C kinesin activity using malachite green-based phosphate colorimetric assay (BioVision). […] The microtubules from porcine brain tubulin (Cytoskeleton) or purified from HEK293 cells in Free-style medium (293Fs) were dissolved in the BRB80 buffer (80 mM PIPES pH 6.8, 1 mM EGTA, 1 mM MgCl2, 1 mM GTP, 1 mM DTT, and 10% DMSO) at 37° C. for 2 hr. Phosphates released from kinesin-mediated ATP hydrolysis was measured by adding 30 μL of the phosphate colorimetric reagent (BioVision), incubated for 10 min, and then measured with absorbance at 650 nm. […] The cell validation was performed by measuring cytotoxicity in MDA-MB-231 cells. The cells were cultured in a 96-well plate at a confluence of 2000 cells/well with indicates compounds for specific days. When the time was up, the culture medium in the plate was aspirated and replaced with a prepared CellTiter-Glo reagent (Promega)/DMEM mixture (1:1 mix of CellTiter-Glo reagent and serum-supplemented DMEM). After incubation for 10 min, the luminescence was measured with an ELISA plate reader to determine the cell viability.
The cancer cells were cultured in a 96-well plate at a confluence of 1000-2000 cells/well with indicated drugs for specific days. When the time was up, the culture medium in the plate was aspirated and replaced with a prepared CellTiter-Glo reagent/DMEM mixture (1:1 mix of CellTiter-Glo reagent and serum-supplemented DMEM). After incubation for 10 min, the luminescence (proportional to the number of living cells) was measured with an ELISA plate reader to determine the cell viability.

KIF2C = target: T1, KIF2C (Homo sapiens, UniProt Q99661); assay: In vitro validation: KIF2C kinesin activity, malachite green-based phosphate colorimetric assay; format: biochemical; conditions: concentration that inhibits 50% of KIF2C activity
T1 construct: KIF2C (216-598 a.a.); 6xHis (C); made in house; host or cells: E. coli BL21 (DE3), pET-28a
T1 sequence (Q99661 216-598): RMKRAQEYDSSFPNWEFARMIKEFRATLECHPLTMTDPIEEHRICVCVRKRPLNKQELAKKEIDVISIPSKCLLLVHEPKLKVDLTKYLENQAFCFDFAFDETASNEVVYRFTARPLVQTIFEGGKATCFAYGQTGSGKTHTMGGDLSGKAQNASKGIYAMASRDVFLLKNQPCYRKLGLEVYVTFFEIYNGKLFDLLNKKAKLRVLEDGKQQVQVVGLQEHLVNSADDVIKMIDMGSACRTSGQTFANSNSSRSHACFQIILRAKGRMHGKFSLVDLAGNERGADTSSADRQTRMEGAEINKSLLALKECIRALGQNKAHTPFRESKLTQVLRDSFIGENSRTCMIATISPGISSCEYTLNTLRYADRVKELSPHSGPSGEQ
Experimental: as §1
In vitro kinesin activity was measured using malachite green-based phosphate colorimetric assay (BioVision). […] The microtubules from porcine brain tubulin (Cytoskeleton) or purified from HEK293 cells in Free-style medium (293Fs) were dissolved in the BRB80 buffer (80 mM PIPES pH 6.8, 1 mM EGTA, 1 mM MgCl2, 1 mM GTP, 1 mM DTT, and 10% DMSO) at 37° C. for 2 hr. Phosphates released from kinesin-mediated ATP hydrolysis was measured by adding 30 μL of the phosphate colorimetric reagent (BioVision), incubated for 10 min, and then measured with absorbance at 650 nm.
Constructs of sN+M regions of KIF2C (216-598 a.a.), KIF2A (181-562 a.a.) and KIF2B (171-553 a.a.) with C-terminal 6×His tag were subcloned into pET-28a vector and expressed in BL21 (DE3) E. coli cells (Novartis) cultured in Luria-Bertani medium supplemented with 50 ug/mL kanamycin at 37° C. After induction with 0.8 mM IPTG for 18 hr at 20° C., the cells were pelleted by centrifugation at 6000 rpm for 30 min at 10° C. The collected pellets were resuspended in 30 mL of buffer A (20 mM Tris-HCl pH 7.5, 500 mM NaCl, 10 mM imidazole, 1% CHAPS, and 1 mM PMSF) and next subjected to a high-pressure homogenizer (EmulsiFlex-C3) for cell lysis. After removing the cell debris by centrifugation at 13000 rpm for 30 min at 10° C., the recombinant Kinesin-13 in the supernatant was purified using nickel affinity chromatography. Firstly, the supernatant was applied to the Ni-NTA column (GE Healthcare) pre-equilibrated with buffer A. Secondly, the column was washed with 10× column volumes of buffer A to remove the unwanted proteins. The washed column was then eluted with 10× column volumes of buffer containing increasing concentrations of imidazole (40, 100, 300, 1000 mM), and the majority of the recombinant Kinesin-13 protein was eventually obtained in a fraction of 300 mM imidazole. The fractions containing the recombinant Kinesin-13 were subsequently concentrated in the buffer B (20 mM Tris-HCl pH 7.5, 10 mM imidazole, 50 mM NaCl, 2 mM DTT) using an Amicon® Ultra filter (Millipore) and subjected to cation exchange column (Capto S, GE Healthcare) for further purification. The recombinant Kinesin-13 was then eluted in elution buffer (20 mM Tris-HCl pH 7.5 and 2 mM DTT) containing 400 mM of NaCl and stored at −80° C. for long-term storage.

SMILES	EC50 (KIF2C) [µM]	IC50 (MDA-MB-231 cells) [µM]	Cell validation (IC50) (MDA-MB-231 cells)	cytotoxicity on MDA-MB-231 cells (in words) (MDA-MB-231 cells; 72 hr)
CC1=C(C(=O)OC(C)C)C(c2ccc(Cl)cc2)n2c(s/c(=C\c3ccc(OCc4cnn[nH]4)cc3)c2=O)=N1 (stereo not drawn) [37S0 (120), isopropyl (Z)-2-(4-((1H-1,2,3-triazol-5-yl)methoxy)benzylidene)-5-(4-chlorophenyl)-7-methyl-3-oxo-2,3-dihydro-5H-thiazolo[3,2-a]pyrimidine-6-carboxylate]	> 100	> 50	–	–
CC1=C(C(=O)OC(C)C)C(c2ccc(Cl)cc2)n2c(s/c(=C\c3ccc(OCC#N)cc3)c2=O)=N1 (stereo not drawn) [38S0 (117), isopropyl (Z)-5-(4-chlorophenyl)-2-(4-(cyanomethoxy)benzylidene)-7-methyl-3-oxo-2,3-dihydro-5H-thiazolo[3,2-a]pyrimidine-6-carboxylate]	> 100	> 50	–	–
CC1=C(C(=O)OC(C)C)C(c2ccc(Cl)cc2)n2c(s/c(=C\c3ccc(OCCCO)cc3)c2=O)=N1 (stereo not drawn) [39S0 (118), isopropyl (Z)-5-(4-chlorophenyl)-2-(4-(3-hydroxypropoxy)benzylidene)-7-methyl-3-oxo-2,3-dihydro-5H-thiazolo[3,2-a]pyrimidine-6-carboxylate]	> 100	> 50	–	–
CC1=C(C(=O)OC(C)C)C(c2ccc(Br)cc2)n2c(s/c(=C\c3ccc(OCC(=O)O)cc3)c2=O)=N1 (stereo not drawn) [40S0 (40), (4-(((2Z)-5-(4-bromophenyl)-7-methyl-3-oxo-6-((propan-2-yloxy)carbonyl)-5H-[1,3]thiazolo[3,2-a]pyrimidin-2(3H)-ylidene)methyl)phenoxy)acetic acid]	< 20	> 50	–	–
COc1ccc(C2C(C(=O)OC(C)C)=C(C)N=c3s/c(=C\c4ccc(OCC(=O)O)cc4)c(=O)n32)cc1 (stereo not drawn) [41S0 (60), (Z)-2-(4-((6-(isopropoxycarbonyl)-5-(4-methoxyphenyl)-7-methyl-3-oxo-5H-thiazolo[3,2-a]pyrimidin-2(3H)-ylidene)methyl)phenoxy)acetic acid]	< 50	> 50	–	–
COc1ccc(C2C(C(=O)OC(C)C)=C(C)N=c3s/c(=C\c4ccc(OCC(=O)N5CCN(C)CC5)cc4)c(=O)n32)cc1 (stereo not drawn) [42S0 (61), isopropyl (Z)-5-(4-methoxyphenyl)-7-methyl-2-(4-(2-(4-methylpiperazin-1-yl)-2-oxoethoxy)benzylidene)-3-oxo-2,3-dihydro-5H-thiazolo[3,2-a]pyrimidine-6-carboxylate]	> 100	20 to 50	–	–
COc1ccc(C2C(C(=O)OC(C)C)=C(C)N=c3s/c(=C\c4ccc(OCC(=O)N5CCC(N6CCN(C)CC6)CC5)cc4)c(=O)n32)cc1 (stereo not drawn) [43S0 (62), isopropan-2-yl (2Z)-5-(4-chlorophenyl)-7-methyl-2-(4-(2-(4-(4-methylpiperazin-1-yl)piperidin-1-yl)-2-oxoethoxy)benzylidene)-3-oxo-2,3-dihydro-5H-[1,3]thiazolo[3,2-a]pyrimidine-6-carboxylate]	50 to 100	–	+ + + +	–
CCOC(=O)C1=C(C)N=c2s/c(=C\c3ccc(OCC(=O)OC)cc3)c(=O)n2[C@@H]1c1ccc(Cl)cc1 [44S0 (128)]	> 100	> 50	–	–
CCOC(=O)C1=C(C)N=c2s/c(=C\c3ccc(OCC(=O)OC)cc3)c(=O)n2[C@H]1c1ccc(Cl)cc1 [45S0 (129)]	> 100	> 50	–	–
CCOC(=O)C1=C(C)N=c2s/c(=C\c3ccc(OCC(=O)N4CCN(C)CC4)cc3)c(=O)n2C1c1ccc(Cl)cc1 (stereo not drawn) [49S0 (94)]	50 to 100	–	+ +	–
CC1=C(C(=O)OC(C)(C)C)C(c2ccc(Cl)cc2)n2c(s/c(=C\c3ccc(OCC(=O)O)cc3)c2=O)=N1 (stereo not drawn) [53S0 (80), (Z)-2-(4-((6-(tert-butoxycarbonyl)-5-(4-chlorophenyl)-7-methyl-3-oxo-5H-thiazolo[3,2-a]pyrimidin-2(3H)-ylidene)methyl)phenoxy)acetic acid]	50 to 100	> 50	–	–
CC1=C(C(=O)O)C(c2ccc(Cl)cc2)n2c(s/c(=C\c3ccc(OCC(=O)N4CCN(C)CC4)cc3)c2=O)=N1 (stereo not drawn) [Compound 137]	< 50	> 50	–	–

Continued, in another order:

EC50 (KIF2C) [µM]	SMILES	IC50 (MDA-MB-231 cells) [µM]	Cell validation (IC50) (MDA-MB-231 cells)	cytotoxicity on MDA-MB-231 cells (in words) (MDA-MB-231 cells; 72 hr)
> 100	COC(=O)COc1ccc(/C=c2\sc3n(c2=O)C(c2ccc(Cl)cc2)C(C(=O)OC(C)C)=C(C)N=3)cc1 (stereo not drawn) [46S0 (25), isopropyl (Z)-5-(4-chlorophenyl)-2-(4-(2-methoxy-2-oxoethoxy)benzylidene)-7-methyl-3-oxo-2,3-dihydro-5H-thiazolo[3,2-a]pyrimidine-6-carboxylate]	> 50	–	–
> 100	CC1=C(C(=O)OC(C)C)C(c2ccc(Cl)cc2)n2c(s/c(=C\c3ccc(OC(C)(C)C(=O)O)cc3)c2=O)=N1 (stereo not drawn) [47S0 (107), (Z)-2-(4-((5-(4-chlorophenyl)-6-(isopropoxycarbonyl)-7-methyl-3-oxo-5H-thiazolo[3,2-a]pyrimidin-2(3H)-ylidene)methyl)phenoxy)-2-methylpropanoic acid]	> 50	–	–
< 50	CCOC(=O)C1=C(C)N=c2s/c(=C\c3ccc(OCC(=O)N4CCC(N5CCN(C)CC5)CC4)cc3)c(=O)n2C1c1ccc(Cl)cc1 (stereo not drawn) [50S0 (99)]	–	+ + + +	–
50 to 100	CC1=C(C(=O)OC(C)C)C(c2ccc(N(C)C)cc2)n2c(s/c(=C\c3ccc(OCC(=O)O)cc3)c2=O)=N1 (stereo not drawn) [51S0 (55), (Z)-2-(4-((5-(4-(dimethylamino)phenyl)-6-(isopropoxycarbonyl)-7-methyl-3-oxo-5H-thiazolo[3,2-a]pyrimidin-2(3H)-ylidene)methyl)phenoxy)acetic acid]	> 50	–	–
> 100	CC1=C(C(=O)OC(C)C)C(c2ccc(-n3ccnc3)cc2)n2c(s/c(=C\c3ccc(OCC(=O)O)cc3)c2=O)=N1 (stereo not drawn) [52S0 (45), (Z)-2-(4-((5-(4-(1H-imidazol-1-yl)phenyl)-6-(isopropoxycarbonyl)-7-methyl-3-oxo-5H-thiazolo[3,2-a]pyrimidin-2(3H)-ylidene)methyl)phenoxy)acetic acid]	> 50	–	–
50 to 100	CCOC(=O)C1=C(C)N=c2s/c(=C\c3ccc(OCC(=O)O)cc3)c(=O)n2[C@@H]1c1ccc(Cl)cc1 [54S0 (130)]	> 50	–	–
> 100	CCOC(=O)C1=C(C)N=c2s/c(=C\c3ccc(OCC(=O)O)cc3)c(=O)n2[C@H]1c1ccc(Cl)cc1 [55S0 (131)]	> 50	–	–
> 100	CC1=C(C(=O)OC(C)C)C(c2ccc(Cl)cc2)n2c(s/c(=C\c3ccc(OCC(=O)NS(=O)(=O)C(F)(F)F)cc3)c2=O)=N1 (stereo not drawn) [56S0 (121), isopropyl (Z)-5-(4-chlorophenyl)-7-methyl-3-oxo-2-(4-(2-oxo-2-((trifluoromethyl)sulfonamido)ethoxy)benzylidene)-2,3-dihydro-5H-thiazolo[3,2-a]pyrimidine-6-carboxylate]	> 50	–	–
50 to 100	CCN1CCN(C(=O)COc2ccc(/C=c3\sc4n(c3=O)C(c3ccc(Cl)cc3)C(C(=O)OC(C)C)=C(C)N=4)cc2)CC1 (stereo not drawn) [Compound 13S0]	–	+ +	showed cytotoxicity
> 100	CC1=C(C(=O)OC(C)C)C(c2ccc(Cl)cc2)n2c(s/c(=C\c3ccc(OCC(=O)NC4CCN(C)CC4)cc3)c2=O)=N1 (stereo not drawn) [Compound 136]	> 50	–	–
